Key:
[1] = test system: human hippocampal stem cells; experiment: Neurogenesis, TuJ1 immunostaining / Hoechst (primary screen); format: cell-based
From the text: FIG. 2 is a bar graph illustrating an example of a neurogenesis profile of compounds selected from primary screening. After seven days of compound treatment, the cells were stained with the neuron-specific anti-tubulin IIIb antibody. TuJ1, for neurons and Hoechst for all cell nuclei. Shown are the relative ratio of neuron: total cells for each compound over the vehicle control in percentage. Typical ratio for vehicle control is 40-50% neurons. The ratio can change by either increased differentiation of stem cells to neurons, decreased proliferation of astrocytes, or increased proliferation of neuronal progenitors.
FIG. 3 is a bar graph illustrating an example of a neurogenesis profile of compounds selected from primary screening. After seven days of compound treatment, the cells were stained with TuJ1 for neurons. The number of TuJ1+ neurons per area was quantified and expressed as a relative value to the vehicle treated control.
The final neuron number is detected by immunostaining of the culture with antibodies against neurons and is quantified by counting of the immunopositive neurons and/or by measuring the staining intensity. Therefore, after seven days of compound treatment, the cells are stained with the neuron-specific anti-tubulin IIIb antibody, TuJ1, for neurons and Hoechst for all cell nuclei. The number of TuJ1+ neurons per area is quantified and expressed as a value relative to the vehicle-treated control of Hoechst-stained cells. In this regard, the medium is removed from the wells by decanting and blotting the plates on paper towels. The cells are then fixed in 100 μl of 4% paraformaldehyde per well for thirty minutes at room temperature. The cells are washed three times with 400 μl per well of phosphate-buffered saline (PBS) at pH 7.5 for approximately ten minutes per wash. The plates are then stored at 4° C. in PBS or used immediately for staining.
The cells are subsequently stained with antibodies against neuron-specific antigens according to standard procedures. The staining process includes decanting the PBS and blocking the cells with 100 μl of 5% Normal Goat Serum (NGS) in PBS for one hour at room temperature. The NGS/PBS is decanted and the plates are blotted on a paper towel. The cells are then permeabilized with 0.1% Triton X-100 in PBS for 30 minutes at room temperature.
Typical neuron-specific antigens include Type III-beta tubulin and MAP-2c. The total cell number in each well was quantified by staining the cultures with a nuclear dye such as DAPI or Hoechst according to standard procedures. Therefore, once the cells are permeabilized, 20 μl of TuJ1, monoclonal antibody against neuronal class 111 β-tubulin (CoVance (BabCo) MMS-435P) and 32 μl of anti-GFAP polyclonal (DAKO Z0334) are added to and mixed of PBS with 5% NGS. Final dilutions of TuJ1 and anti-GFAP are 1:400 and 1:250, respectively. 90 μl of the antibody solution is added to each well except two eleventh column. 90 μl of PBS/5% NGS is added to the eleventh column and no cells are added to the twelfth column. The plate(s) are sealed with parafilm and incubated at 4° C. overnight.
After incubating the cells overnight, the antibody solution is decanted and 200 μl of PBS/0.1% Triton X-100 is added to the wells. The plate(s) are placed on a shaker and incubated at room temperature with gentle shaking for ten minutes. The cells are again washed with the PBS/Triton X-100 solution another two times.
Following staining with TuJ1 and anti-GFAP, 20 μl of Alexa Fluor 488 labeled goat anti-moose IgG (H+L) (Molecular Probes A-11001) and 100 μl of LRSC-IgG, goat anti-rabbit (Jackson Immune 111-295-144) is added and mixed with 10 ml of PBS/5% NGS. 100 μl of the resulting antibody solution is added to each well. The plate(s) are covered with foil and incubated with gentle shaking for up to one hour at room temperature. The cells are again washed as described above with PBS and an Triton X-100. […]

[2] = test system: human hippocampal stem cells; details: positive control; as described in U.S. Ser. No. 10/728,652; cited from earlier work

Compound	Activity in primary in vitro neurogenesis screen [1]	Increase of the number of neurons and glia [2]
COc1ccc(C2CNC(=O)C2)cc1OC1CCCC1 (centres unmarked) [Rolipram, reference compound]	effective	
LIF: leukemia inhibitory factor (LIF), a cytokine growth factor, positive control		two to three-fold
